Results reported in patent US9782383B2, “Prophylactic and therapeutic agent for attention-deficit/hyperactivity disorder” (FUJIMOTO CO., LTD., priority 2013, dated 2017).
Read-outs that look alike come from different tables or passages of the source.

Legend:
rats = assay: Methamphetamine-seeking behavior in rats
SHRSP/Ezo rats [1] = assay: Open field test (hyperactivity, inner zone spent time); format: in vivo, rat
Description: (§1) In all the tests described herein, the R configuration (−) substance hydrochloride salt of the compound for use in the invention (hereinafter referred to as “BPAP” in some cases) as the test material and methylphenidate hydrochloride (SIGMA Aldrich) as the comparative drug were dissolved in saline, diluted to a volume of 2 ml/kg before administration, and systemically administered into six-week-old male SHRSP/Ezo rats 30 minutes before behavior tests. Note that BPAP was subcutaneously (s.c.) administered, and methylphenidate was subcutaneously (s.c.) or intraperitoneally (i.p.) administered after the confirmation that there was no difference between the two routes, i.e., the s.c. and i.p. administration.
The spontaneous locomotor activity in a new environment was evaluated using an open-field apparatus (90 (width)×90 (depth)×40 cm (height), 81 squares).
In this experiment, under a 200-lux illuminance condition, rats were placed in the center of the open field and allowed to move freely in the field for a 60-minute test session, and the horizontal activities (crossings: the number of squares crossed) during the exploration was analyzed by a video tracking system for behavioral experiments (LimeLight Actimetrics, USA).
(§2) Data were represented as the means±standard errors. Student's t-test was used for the statistics analysis, and a P value below 5% was considered statistically significant.
Since the spent time in the inner zones (nine compartments in the center) (inner zone spent time) in the open field test is used for the evaluation of the anxiety level, the spent times per time (sec/15 min) and per behavior (sec/count) corrected with the locomotor activity (total crossings) were analyzed as the secondary evaluation in the open field test (FIG. 3). […] SHRSP/Ezo rats show an increase in spent time in the inner zone at the habituated phase during which hyperactivity was observed, indicating a reduction in anxiety level at the habituated phase. […] However, 0.3 mg/kg of BPAP had no effect on the reduction in anxiety level at habituated phase.

[2] = tested on: human monoamine transporters (DAT, NET, SERT); assay: Affinity for human monoamine transporters; format: binding; conditions: for order of affinities for human monoamine transporters: highest first
SHRSP/Ezo rats [3] = assay: Elevated-plus maze test (impulsivity); format: in vivo, rat
Description: as §1
The anxiety-related behavior was evaluated using an elevated plus maze (open arm: 50 (length)×10 cm (width), enclosed arm: 50 (length)×10 (width)×40 cm (height), height above the floor: 50 cm). The device is constituted by a wall-less open arm and a wall-surrounding enclosed arm crossing each other at right angles at a height of 50 cm above the floor. An animal staying in an open arm is exposed to anxiety in the elevated wall-less open state. […] The elevated-plus maze test reflects an equilibrium state between the approach behavior (curiosity) and the avoidance behavior driven by anxiety in an animal, and thus is generally used for the evaluation of the anxiety level of an animal.
In this experiment, under a 200-lux illuminance condition, a rat was placed in the center of the crossing point of two sets of arms and allowed to enter freely into the maze for a ten-minute test session. The total number of arm entries (total arm entries), the time spent in open arms and the rate of open arm entries were analyzed by a video tracking system for behavioral experiments (LimeLight Actimetrics).
as §2

[4] = tested on: ADHD model rats or normal rats; assay: Locomotor activity in ADHD model rats or normal rats; format: in vivo, rat; conditions: high dose
SHRSP/Ezo rats [5] = assay: Y-maze test (inattentive behavior); format: in vivo, rat
Description: as §1
The short-term working memory was evaluated as a spontaneous alternation behavior using a Y-maze (45 (length)×10 (width)×35 cm (height)). The spontaneous alternation is a behavior based on the habit of a rodent preferring to investigate a new arm of the maze rather than returning to one that was previously visited in the Y-maze. In order to select three different arms continuously, it is necessary to remember the previously visited arm. To achieve this, therefore, the short-term working memory is considered indispensable. Because the processes of the short-term working memory are closely related to an appropriate amount of attention toward achievement of the task, the short-term working memory implicates aspects of attention. Thus, the Y-maze test was carried out to evaluate the inattentive behavior in SHRSP/Ezo rats.
The spontaneous alternation was measured according to the method by Sarter et al. (Psychopharmacology (Berl), 94:491-5 (1988)) using the following procedure. Under a 200-lux illuminance condition, each rat was placed in the center of the crossing point of the three arms and allowed to enter the maze arm freely for eight-minute test session, and the sequence of arm entries was recorded. The alteration behavior was defined as the consecutive entry into three arms, i.e. the combination of three different arms, with stepwise combinations in the sequence. The percentage obtained by dividing the spontaneous alternation behavior by the total number of arm entries (total arm entries) minus 2 was determined as the spontaneous alternation behavior rate (alternation rate). For example, assuming that the rat has entered the arms A, B, and C of the Y-maze in the order of ACBABACBAB, the spontaneous alternation behavior is five (ACB, CBA, BAC, ACB, and CBA), the total number of arm entries is ten, and the spontaneous alternation behavior rate is 62.5%. To consider the influence of variations in spontaneous alternation behavior rate among groups during the baseline (drug-untreated) period on the drug efficacy evaluation, the first Y-maze test was carried out three days before the drug efficacy evaluation, and grouping was performed based on the result of spontaneous alternation behavior rates in the 1st Y-maze test.
as §2

[6] = human, in vivo; cited from earlier work
[7] = tested on: human monoamine transporters (DAT, NET, SERT); conditions: highest first; Neuropsychopharmacology 27: 699-711 (2002); cited from earlier work
[8] = tested on: ADHD model rats or normal rats; conditions: cited from earlier work; for locomotor activities: increasing doses
[9] = human, in vivo; cited from earlier work; remark: listed apart in the source
ADHD patients = conditions: cited from earlier work
[10] = 1 mg/kg as comparative drug (FIG. 2)
[11] = 1 mg/kg as comparative drug (FIG. 1)

Which methamphetamine-seeking behavior (rats; due to drug-associated cues and methamphetamine-priming) does the source give for `CCCNC(CCC)Cc1cc2ccccc2o1` (single isomer, unassigned; (-)) [BPAP, (−)-1-(benzofuran-2-yl)-2-propylaminopentane] here?
The methamphetamine-seeking behavior was “inhibition action”.

And the “induction of methamphetamine-seeking behavior (dependence liability)” value (rats; effective dose)?
Its value is “did not induce”.

And the “locomotor activity at the exploration phase” value (SHRSP/Ezo rats [1]; s.c., 0.3 mg/kg)?
Its value is “no action”.

And the “locomotor activity at the habituated phase” value (SHRSP/Ezo rats [1]; s.c., 0.3 mg/kg)?
The value was “no action”.

And the “reduction in anxiety level (inner zone spent time) at habituated phase” value (SHRSP/Ezo rats [1]; s.c., 0.3 mg/kg)?
The value was “no effect”.

And the “increase in behavior at the habituated phase” value (SHRSP/Ezo rats [1]; s.c., 0.01 to 0.1 mg/kg)?
The value was “significantly inhibited”.

And the “inner zone spent time at the habituated phase” value (SHRSP/Ezo rats [1]; s.c., 0.01 to 0.1 mg/kg)?
Its value is “significantly reduced”.

What about the “locomotor activity at the exploration phase” value (SHRSP/Ezo rats [1]; s.c., 0.01 to 0.1 mg/kg) of the same compound?
Its value is “without affecting”.

And the “relative affinity NET/DAT” value ([2]; compared with methylphenidate)?
The value was “substantially equal”.

And the “relative affinity for SERT (SERT/DAT)” value ([2]; compared with methylphenidate)?
The value was “higher”.

And the “order of affinities for human monoamine transporters” value (“order of affinities” for short) [2]?
The value was “DAT>NET>serotonin transporter (SERT)”.

And the “rate of open arm entries” value (SHRSP/Ezo rats [3]; s.c., 0.1 mg/kg (P=0.08))?
Its value is “tendency to reduce”.

What about the “spent time on the open arms per total number of arm entries” value (SHRSP/Ezo rats [3]; s.c., 0.1 mg/kg, secondary analysis) of the same compound?
The value was “significantly reduced”.

What about the “extension of the spent time on the open arms” value (SHRSP/Ezo rats [3]; s.c., 0.01 to 0.3 mg/kg) of the same compound?
Its value is “no effect”.

What about the spontaneous locomotor activity [4] of the same compound?
The spontaneous locomotor activity was “increases”.

And the impaired alternation behavior (SHRSP/Ezo rats [5]; s.c., 0.03 mg/kg)?
The impaired alternation behavior was “no improvement action was observed”.

And the “total number of arm entries compared with the first trial (Y1)” value (SHRSP/Ezo rats [5]; s.c., 0.03 to 0.3 mg/kg)?
The value was “significantly decreased”.

What about the impaired alternation behavior (SHRSP/Ezo rats [5]; s.c., 0.1 to 0.3 mg/kg) of the same compound?
The impaired alternation behavior was “significantly improved”.

Which abdominal pain [6] does the source give for `CNCC[C@@H](Oc1ccccc1C)c1ccccc1` [atomoxetine] here?
Its abdominal pain is 12.2%.

And the headache [6]?
The headache was 22.3%.

What about the “order of affinities” value [7] of the same compound?
Its value is “NET>SERT>DAT”.

What about the “locomotor activities during an exploration period” value [8] of the same compound?
The value was “decreases”.

And the locomotor activities [8]?
The locomotor activities was “does not exhibit increases”.

What about the dry mouth [9] of the same compound?
Its dry mouth is 13.8%.

What about the headaches [9] of the same compound?
The headaches was 10.5%.

For `COC(=O)C(c1ccccc1)C1CCCCN1` (stereo not shown) [methylphenidate], which “reduction in anxiety level (inner zone spent time) at the habituated phase” value (SHRSP/Ezo rats [1]; 1 mg/kg (FIG. 3)) is on record?
Its value is “no effect”.

What about the “spent time in the inner zone at the exploration phase” value (SHRSP/Ezo rats [1]; 1 mg/kg (FIG. 3)) of the same compound?
The value was “significantly increased”.

And the “hyperactivity during the exploration phase (0 to 15 minutes)” value (SHRSP/Ezo rats [1]; [10])?
The value was “worsened”.

What about the “hyperactivity during the habituated phase (15 to 60 minutes)” value (SHRSP/Ezo rats [1]; [10]) of the same compound?
The value was “worsened”.

And the “hyperactivity (horizontal ambulatory) in open field test” value (SHRSP/Ezo rats [1]; i.p., 1 mg/kg)?
The value was “did not decreased”.

What about the “hyperactivity (horizontal ambulatory) in open field test” value (SHRSP/Ezo rats [1]; i.p., 0.01 and 0.1 mg/kg) of the same compound?
The value was “significantly decreased”.

And the “increase in spontaneous ambulatory in open field test” value (SHRSP/Ezo rats [1]; i.p., 3 and 30 mg/kg)?
Its value is “exacerbated”.

What about the “order of affinities” value [2] of the same compound?
Its value is “DAT>NET>serotonin transporter (SERT)”.

What about the locomotor activities [8] of the same compound?
Its locomotor activities is “dose-dependent increases”.

And the “extension of the spent time on the open arms” value (SHRSP/Ezo rats [3]; 1 mg/kg (FIG. 4))?
The value was “did not improve”.

What about the “increase in the rate of open arm entries” value (SHRSP/Ezo rats [3]; 1 mg/kg (FIG. 4)) of the same compound?
The value was “did not improve”.

What about the “increase in the total number of arm entries (hyperactivity)” value (SHRSP/Ezo rats [3]; 1 mg/kg (FIG. 4)) of the same compound?
The value was “significant worsened”.

And the “extension of the open arm spent time” value (SHRSP/Ezo rats [3]; i.p., 0.01 to 1 mg/kg)?
Its value is “no statistically significant change”.

And the “increase in the number of open arm entries” value (SHRSP/Ezo rats [3]; i.p., 0.01 to 1 mg/kg)?
The value was “no statistically significant change”.

What about the “reduction in spontaneous alternation behavior rate” value (SHRSP/Ezo rats [5]; [11]) of the same compound?
Its value is “recovered”.

And the “total number of arm entries” value (SHRSP/Ezo rats [5]; [11])?
The value was “without increasing”.

And the “increase in the total number of arm entries” value (SHRSP/Ezo rats [5]; i.p., 1 mg/kg, dose validation)?
The value was “significant exaltation”.

And the “reduction in spontaneous alternation behavior rate” value (SHRSP/Ezo rats [5]; i.p., 1 mg/kg, dose validation)?
Its value is “improved”.

What about the “increase in the total number of arm entries” value (SHRSP/Ezo rats [5]; i.p., 0.01 and 0.1 mg/kg) of the same compound?
The value was “no influence”.

What about the “reduction in spontaneous alternation behavior rate” value (SHRSP/Ezo rats [5]; i.p., 0.01 to 1 mg/kg) of the same compound?
The value was “dose-dependently improved”.

What about the “share of ADHD patients for whom the drug is ineffective” value (ADHD patients) of the same compound?
Its value is “approximately three out of ten”.
